In patent US10077309B2, “Compositions and methods for targeting of the surfactant protein A receptor” (The Penn State Research Foundation, priority 2014, dated 2018):

System: IAV infection of macrophages / influenza binding to SP-R210
Format: cell-based, influenza A virus

Row | Substance | competition with influenza virus for binding to the receptor SP-R210 | block of infection of macrophages with IAV (flow cytometry)
1 | SP-A: human surfactant protein A isolated from therapeutic lung lavage of alveolar proteinosis patients | competitively inhibits binding of the influenza virus to the receptor | 
2 | desialylated SP-A: desialylated surfactant protein A | compete for influenza binding to the same receptor | blocks infection of macrophages with IAV
